The test system of experiment [1] is Ramos B cells with beta-lactamase reporter gene under control of an NFAT response element. Nature of the experiment: NFAT-bla RA1 Reporter Assay (Ramos-NFAT). Conditions: read-out: IMM Ramos-NFAT (IC50). The class given is cell-based, human. The method, then: NFAT-bla RA1 Reporter Assay
Ramos B cells containing a stable integration of a beta-lactamase reporter gene under the control of an NFAT response element (NFAT-bla RA1, Invitrogen, K1434) at a density of 100×10^3 cells/well were incubated with test compounds at 37° C. for 30 min prior to stimulation with F(ab′)2 anti-human IgM (Jackson ImmunoResearch, 109-006-129) at 2.5 μg/ml for 4.5 hrs at 37° C. After stimulation, LiveBLAzer-FRET B/G substrate (CCF2/AM, or CCF4/AM, Invitrogen) was added to each well and incubated for 90 min at room temperature in the dark. Assay plates were read on an LJL Analyst, with raw emission values subtracted from a media-only blank containing substrate in assay media (no cells). The ratios of 460 nm/530 nm emission (405 nm excitation) were used to calculate the amount of stimulation.

A further experiment deals with T1, human recombinant Btk (Homo sapiens, UniProt Q06187).
T1 construct: purchased Invitrogen Corporation
Nature of the experiment: Human Recombinant Btk Enzyme Assay (LLE_BTK). The class given is biochemical. The method, then:
Human Recombinant Btk Enzyme Assay
To V-bottom 384-well plates were added test compounds, human recombinant Btk (1 nM, Invitrogen Corporation), fluoresceinated peptide (1.5 μM), ATP (20 μM), and assay buffer (20 mM HEPES pH 7.4, 10 mM MgCl2, 0.015% Brij35 and 4 mM DTT in 1.6% DMSO), with a final volume of 30 μL. After incubating at room temperature for 60 min, the reaction was terminated by adding 45 μl of 35 mM EDTA to each sample. The reaction mixture was analyzed on the Caliper LABCHIP® 3000 (Caliper, Hopkinton, Mass.) by electrophoretic separation of the fluorescent substrate and phosphorylated product. Inhibition data were calculated by comparison to no enzyme control reactions for 100% inhibition and no inhibitor controls for 0% inhibition. Dose response curves were generated to determine the concentration required inhibiting 50% of kinase activity (IC50). Compounds were dissolved at 10 mM in dimethylsulfoxide (DMSO) and evaluated at eleven concentrations.
Using this assay, the following IC50 values derived by non-linear regression analysis were determined and compared to those values of certain compounds in U.S. Publication No. 2007/078136 and U.S. Publication No. 2008/045536.

Structures are written as SMILES. Where two headings read alike, the source gives them in different places.

T1 sequence (Q06187 whole entry): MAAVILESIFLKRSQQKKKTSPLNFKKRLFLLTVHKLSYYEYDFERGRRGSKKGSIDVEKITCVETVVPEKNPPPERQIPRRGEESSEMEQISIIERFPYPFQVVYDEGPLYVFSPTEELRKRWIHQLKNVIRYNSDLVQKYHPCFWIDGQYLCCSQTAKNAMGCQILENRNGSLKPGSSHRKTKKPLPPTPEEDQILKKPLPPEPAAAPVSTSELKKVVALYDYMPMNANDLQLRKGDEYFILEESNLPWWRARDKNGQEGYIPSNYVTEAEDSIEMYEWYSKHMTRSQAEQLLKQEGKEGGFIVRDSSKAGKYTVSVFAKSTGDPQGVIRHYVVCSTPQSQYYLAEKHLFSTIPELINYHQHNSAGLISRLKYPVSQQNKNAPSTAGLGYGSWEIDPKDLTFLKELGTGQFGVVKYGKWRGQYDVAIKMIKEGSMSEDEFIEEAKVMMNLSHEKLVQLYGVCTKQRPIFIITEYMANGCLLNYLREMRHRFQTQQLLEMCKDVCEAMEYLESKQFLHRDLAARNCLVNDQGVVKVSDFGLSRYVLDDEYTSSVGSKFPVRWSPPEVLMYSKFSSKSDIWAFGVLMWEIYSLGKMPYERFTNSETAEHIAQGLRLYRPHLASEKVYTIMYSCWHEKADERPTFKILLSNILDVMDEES

On to `Cc1ccc(NC(=O)N[C@@H]2CCCN(c3ccc(C(N)=O)c(Nc4ccc(N5CCN(C)CC5)cc4)n3)C2)cc1C` [Example 283], for which the IC50 in experiment [1] (Homo sapiens, Ramos) is 120 nM; on human recombinant Btk, 10 nM.
The like results for `CN(C)S(=O)(=O)c1ccc(Nc2nc(N3CCC[C@@H](NC(=O)c4ccccc4)C3)c(F)cc2C(N)=O)cc1` [Example 508] were, in that order, 140 nM and 0.8 nM.
The like results for `NC(=O)c1cc(F)c(N2CCC[C@@H](NC(=O)Nc3nccs3)C2)nc1Nc1ccc(CCN2CCCC2)cc1` [Example 549] were, in that order, 30 nM and 0.7 nM.
The corresponding values for `CS(=O)(=O)c1ccc(Nc2nc(N3CCC[C@@H](NC(=O)c4ccccc4)C3)c(F)cc2C(N)=O)cc1` [Example 506] are 150 nM and 2 nM.
Take `CN1CCN(c2ccc(Nc3nc(N4CCCCC4)c(F)cc3C(N)=O)cc2)CC1` [Example 393]: the 50% inhibitory concentration (IC50) in experiment [1] (Homo sapiens, Ramos) turned out to be 120 nM; on human recombinant Btk it was 20 nM.
In the case of `CN1CCC(C)(c2ccc(Nc3nc(N4CCC[C@@H](NC(=O)Nc5nccs5)C4)c(F)cc3C(N)=O)cc2)CC1` [Example 554], the IC50 stood at 40 nM in experiment [1] (Homo sapiens, Ramos) and 0.7 nM on human recombinant Btk.
Regarding `CN1CCC(C)(c2ccc(Nc3nc(N4CCC[C@@H](NC(=O)c5ccccc5)C4)c(F)cc3C(N)=O)cc2)CC1` [Example 518], the IC50 worked out at 30 nM in experiment [1] (Homo sapiens, Ramos) and 2 nM on human recombinant Btk.
The like results for `COc1ccc([C@H](C)N[C@H]2CCC[C@H](c3nc(Nc4ccc(N5CCOCC5)cc4)c(C(N)=O)cc3F)C2)cc1` [Example 435] were, in that order, 4500 nM and 1300 nM.
The corresponding values for `CN1CCC(c2ccc(Nc3nc(N4CCCCC4)c(F)cc3C(N)=O)cc2)CC1` [Example 489] are 100 nM and 10 nM.
The like results for `CN1CCN(c2ccc(Nc3nc(N4CCC[C@@H](NC(=O)c5ccc(F)c(F)c5)C4)c(F)cc3C(N)=O)cc2)CC1` [Example 413] were, in that order, 240 nM and 1 nM.
On to `CN1CCC(C)(c2ccc(Nc3nc(N4CCC[C@@H](N5CCCC5=O)C4)c(F)cc3C(N)=O)cc2)CC1` [Example 566], for which the 50% inhibitory concentration (IC50) in experiment [1] (Homo sapiens, Ramos) was found to be 90 nM; at human recombinant Btk it was 3 nM.
The like results for `CN1CCN(c2ccc(Nc3nc(N4CCC[C@@H](NC(=O)c5ccccc5)C4)c(F)cc3C(N)=O)cc2)CC1` [Example 388] were, in that order, 70 nM and 4 nM.
`Cc1csc(NC(=O)N[C@@H]2CCCN(c3ccc(C(N)=O)c(Nc4ccc(N5CCN(C)CC5)cc4)n3)C2)n1` [Example 12, (R)-2-(4-(4-Methylpiperazin-1-yl)phenylamino)-6-(3-(3-(4-methylthiazol-2-yl)ureido)piperidin-1-yl)nicotinamide]: the 50% inhibitory concentration (IC50) came out at 40 nM in experiment [1] (Homo sapiens, Ramos) and 7 nM at human recombinant Btk.
The like results for `NC(=O)c1cc(F)c(N2CCC[C@@H](NC(=O)Nc3nccs3)C2)nc1Nc1ccc(N2CCOCC2)c(F)c1` [Example 451] were, in that order, 80 nM and 0.8 nM.
The like results for `CC(=O)N1CCN(c2ccc(Nc3nc(N4CCC[C@@H](NC(=O)Nc5ccc(C)c(C)c5)C4)ccc3C(N)=O)cc2)CC1` [Example 361] were, in that order, 100 nM and 9 nM.
`COc1ccc([C@H](C)N[C@H]2CCC[C@@H](c3nc(Nc4ccc(N5CCOCC5)cc4)c(C(N)=O)cc3F)C2)cc1` [Example 436]: the 50% inhibitory concentration (IC50) in experiment [1] (Homo sapiens, Ramos) came out at 7900 nM; at human recombinant Btk, 2200 nM.
Consider `CN1CCN(c2ccc(Nc3nc(N4CCC[C@@H](N(C)C(=O)c5ccccc5)C4)c(F)cc3C(N)=O)cc2)CC1` [Example 418], for which the concentration for half-maximal inhibition (IC50) in experiment [1] (Homo sapiens, Ramos) was 380 nM; at human recombinant Btk it was 2 nM.
The like results for `NC(=O)c1cc(F)c(N2CCC[C@@H](NC(=O)c3ccc(F)c(Cl)c3)C2)nc1Nc1ccc(F)cc1` [Example 456] were, in that order, 10000 nM and 4300 nM.
With `CC(C)(C)OC(=O)N1CCCC(c2ccc(Nc3nc(N4CCCCC4)c(F)cc3C(N)=O)cc2)C1` (stereo not shown) [Example 523], the IC50 in experiment [1] (Homo sapiens, Ramos) worked out at 10000 nM; on human recombinant Btk, 3700 nM.
The corresponding values for `CN1CCN(c2ccc(Nc3nc(N4CCC[C@@H](NC(=O)Nc5nccs5)C4)ccc3C(N)=O)cc2)CC1` [Example 284] are 60 nM and 7 nM.
In the case of `NC(=O)c1cc(F)c(C2CCCC(OC(=O)c3ccccc3)C2)nc1Nc1ccc(N2CCOCC2)cc1` (stereo not shown) [Example 430], the IC50 is 10000 nM in experiment [1] (Homo sapiens, Ramos) and 740 nM at human recombinant Btk.
The like results for `NC(=O)c1ccc(N2CCC[C@@H](NC(=O)c3cccc(-c4nc5ccccc5[nH]4)c3)C2)nc1Nc1ccc(C(=O)N2CCOCC2)cc1` [Example 263] were, in that order, 5700 nM and 0.9 nM.
Turning to `NC(=O)c1ccc(-c2cccc3c2CCN(C(=O)c2ccccc2)C3)nc1Nc1ccc(-c2cnco2)cc1` [Example 346], the IC50 was 10000 nM in experiment [1] (Homo sapiens, Ramos) and 2900 nM on human recombinant Btk.
For the molecule `CN1CCC(c2ccc(Nc3nc(N4CCC[C@@H](NC(=O)c5ccccc5)C4)c(F)cc3C(N)=O)cc2)CC1` [Example 490], the IC50 in experiment [1] (Homo sapiens, Ramos) was 270 nM; at human recombinant Btk it was 3 nM.
The corresponding values for `CN1CCC(c2ccc(Nc3nc(N4CCC[C@@H](NC(=O)Nc5nccs5)C4)c(F)cc3C(N)=O)cc2)CC1` [Example 492] are 20 nM and 1 nM.
With `CN1CCC(O)(c2ccc(Nc3nc(N4CCC[C@@H](N5CCCC5=O)C4)c(F)cc3C(N)=O)cc2)C(C)(C)C1` (stereo partly shown) [Example 568], the concentration for half-maximal inhibition (IC50) in experiment [1] (Homo sapiens, Ramos) was found to be 120 nM; on human recombinant Btk, 1 nM.
Consider `CN1CCN(C(=O)c2ccc(Nc3nc(N4CCC[C@@H](NC(=O)Nc5nccs5)C4)c(F)cc3C(N)=O)cc2)CC1` [Example 544], for which the IC50 in experiment [1] (Homo sapiens, Ramos) came out at 560 nM; on human recombinant Btk it was 0.9 nM.
Regarding `CN1CCCC(c2ccc(Nc3nc(N4CCC[C@@H](NC(=O)Nc5nncs5)C4)c(F)cc3C(N)=O)cc2)C1` (stereo partly shown) [Example 558], the IC50 in experiment [1] (Homo sapiens, Ramos) amounted to 380 nM; at human recombinant Btk it was 2 nM.
The corresponding values for `NC(=O)c1cc(F)c(N2CCC[C@@H](NC(=O)Nc3nccs3)C2)nc1Nc1ccc(C(=O)N2CCOCC2)cc1` [Example 382] are 800 nM and 2 nM.
The corresponding values for `NC(=O)c1cc(F)c(N2CCC[C@@H](NC(=O)c3ccccc3)C2)nc1Nc1ccc(N2CCS(=O)(=O)CC2)cc1` [Example 503] are 80 nM and 7 nM.
With `CN1CCN(c2ccc(Nc3nc(N4CCC[C@@H](N5CCCC5=O)C4)c(F)cc3C(N)=O)cc2)CC1` [Example 419], the 50% inhibitory concentration (IC50) amounted to 180 nM in experiment [1] (Homo sapiens, Ramos) and 1 nM on human recombinant Btk.
The like results for `CN1CCN(c2ccc(Nc3nc(N4CCC(O)CC4)c(F)cc3C(N)=O)cc2)CC1` [Example 407] were, in that order, 120 nM and 30 nM.
The corresponding values for `CC(C)N1CCN(c2ccc(Nc3nc(N4CCC[C@@H](NC(=O)c5ccccc5)C4)ccc3C(N)=O)cc2)CC1` [Example 357] are 100 nM and 4 nM.
`CN1CCN(c2ccc(Nc3nc(N4CCC[C@@H](NC(=O)Nc5nccs5)C4)c(F)cc3C(N)=O)cc2)CC1` [Example 385]: the concentration for half-maximal inhibition (IC50) in experiment [1] (Homo sapiens, Ramos) was 20 nM; at human recombinant Btk, 3 nM.
Regarding `CN(C)CCc1ccc(Nc2nc(N3CCCC(F)(F)C3)c(F)cc2C(N)=O)cc1` [Example 475], the IC50 worked out at 100 nM in experiment [1] (Homo sapiens, Ramos) and 20 nM at human recombinant Btk.
The corresponding values for `CN1CCN(c2ccc(Nc3nc(N4CCC[C@@H](NC(=O)c5ccc(N(C)C)cc5)C4)c(F)cc3C(N)=O)cc2)CC1` [Example 414] are 230 nM and 2 nM.
The like results for `CCN1CCN(c2ccc(Nc3nc(N4CCC[C@@H](NC(=O)c5ccccc5)C4)ccc3C(N)=O)cc2)CC1` [Example 354] were, in that order, 100 nM and 4 nM.
The like results for `NC(=O)c1cc(F)c(N2CCC[C@@H](NC(=O)Nc3nccs3)C2)nc1Nc1ccc(CCO)cc1` [Example 545] were, in that order, 160 nM and 2 nM.
On to `CN(C)CCc1ccc(Nc2nc(N3CCC[C@@H](NC(=O)Nc4nccs4)C3)c(F)cc2C(N)=O)cc1` [Example 458], for which the IC50 in experiment [1] (Homo sapiens, Ramos) worked out at 30 nM; in experiment [1], 50 nM; on human recombinant Btk it was 0.6 nM.
Regarding `CN1CCN(c2ccc(Nc3nc(N4CCC[C@@H](NC(=O)c5ccccc5)C4)c(F)cc3C(N)=O)cc2F)CC1` [Example 479], the 50% inhibitory concentration (IC50) is 70 nM in experiment [1] (Homo sapiens, Ramos) and 1 nM on human recombinant Btk.
Consider `CN1CCCC(c2ccc(Nc3nc(N4CCC[C@@H](NC(=O)Nc5nccs5)C4)c(F)cc3C(N)=O)cc2)C1` (stereo partly shown) [Example 557], for which the 50% inhibitory concentration (IC50) in experiment [1] (Homo sapiens, Ramos) was determined as 60 nM; at human recombinant Btk, 2 nM.
The like results for `CC(C)(C)NCCc1ccc(Nc2nc(N3CCC[C@@H](NC(=O)Nc4nccs4)C3)c(F)cc2C(N)=O)cc1` [Example 550] were, in that order, 120 nM and 2 nM.

The values are drawn from patent US8586751B2, “Nicotinamide compounds useful as kinase modulators” (Bristol-Myers Squibb Company, priority 2009, dated 2013).
